Results on one compound are retold here after publication PMC8704709, “Improved Anticancer Activities of a New Pentafluorothio-Substituted Vorinostat-Type Histone Deacetylase Inhibitor” (Pharmaceuticals, 2021).

The test system of series [1] is caspase-3 activity in DU145 cells. In words: Apoptosis-specific caspase-3 activation (AC-DEVD-AMC cleavage). Format: cell-based, human. The conditions noted are these: 24 h treatment, 1–10 µM. Here is the method: (§1) Changes in caspase-3 activity were measured by the cleavage of the fluorogenic substrate AC-DEVD-AMC (EMD Millipore, Billerica, MA, USA), as described previously. […] Subsequently, the lysates were incubated for 1 h at 37 °C with a substrate solution containing 20 μg/mL AC-DEVD-AMC, 20 mM HEPES, 10% glycerol and 2 mM DTT at pH 7.5.

Series [2] relates to caspase-3 activity in Hep-G2 cells. Described as above. Format: cell-based, human. The conditions noted are these: 24 h treatment, 1–10 µM. Here is the method:
as §1

The next series relates to SupT11 cells. Description: IC50 by Annexin-V/7AAD dual staining, flow cytometry. Format: cell-based. The conditions noted are these: Homo sapiens, as determined after 48 h, means ± SEM, n ≥ 3, read-out: Growth inhibitory activity IC50, SupT11. Here is the method: (§2) Stock solutions (10 mM) prepared by dissolution in DMSO were stored at −20 °C. Working solutions were always freshly prepared before each experiment by dilution of stock solution with medium. The final DMSO concentration never exceeded 0.25%. Treatment-induced changes in cell number were determined by crystal violet (N-hexamethylpararosaniline from Sigma Aldrich) staining. 1000 cells/well (DU145) or 1500 cells/well (Hep-G2) were seeded in 96-well plates and maintained for adherence in an incubator (37 °C, 5% CO2, humidified atmosphere) for 48 h prior to the beginning of the treatment. […] Thereafter, the cells were fixed with 1% glutaraldehyde and stained with 0.1% crystal violet. The unbound dye was removed by rinsing with water. Bound crystal violet was solubilized with 0.2% Triton X-100 (Sigma-Aldrich). Light extinction of crystal violet, which increases linearly with the cell number, was analyzed at 570 nm using an ELISA-Reader (Dynex Technologies, Denkendorf, Germany). For T-cell leukemia/lymphoma cell lines apoptosis was determined using dual staining for Annexin-V and 7AAD via flow cytometry.
A general note: A flow cytometer gives signals particle by particle.

A further series concerns Jurkat cells. The series is described as above. The conditions noted are these: Homo sapiens, as determined after 48 h, means ± SEM, n ≥ 3, read-out: Growth inhibitory activity IC50, Jurkat. Format: cell-based. As to the method: as §2
Another series has as its system Hut78 cells. The series is described as above. The following applies: Homo sapiens, as determined after 48 h, means ± SEM, n ≥ 3, read-out: Growth inhibitory activity IC50, Hut78. Format: cell-based. As to the method: as §2
The next series concerns SMZ1 cells. The series is described as above. Format: cell-based. The following applies: Homo sapiens, as determined after 48 h, means ± SEM, n ≥ 3, read-out: Growth inhibitory activity IC50, SMZ1. As to the method:
as §2

In another series the target is T1, human recombinant HDAC1 (Homo sapiens, UniProt Q13547).
T1 construct: purchased BPS Biosciences, San Diego, CA, USA
T1 sequence (Q13547 whole entry): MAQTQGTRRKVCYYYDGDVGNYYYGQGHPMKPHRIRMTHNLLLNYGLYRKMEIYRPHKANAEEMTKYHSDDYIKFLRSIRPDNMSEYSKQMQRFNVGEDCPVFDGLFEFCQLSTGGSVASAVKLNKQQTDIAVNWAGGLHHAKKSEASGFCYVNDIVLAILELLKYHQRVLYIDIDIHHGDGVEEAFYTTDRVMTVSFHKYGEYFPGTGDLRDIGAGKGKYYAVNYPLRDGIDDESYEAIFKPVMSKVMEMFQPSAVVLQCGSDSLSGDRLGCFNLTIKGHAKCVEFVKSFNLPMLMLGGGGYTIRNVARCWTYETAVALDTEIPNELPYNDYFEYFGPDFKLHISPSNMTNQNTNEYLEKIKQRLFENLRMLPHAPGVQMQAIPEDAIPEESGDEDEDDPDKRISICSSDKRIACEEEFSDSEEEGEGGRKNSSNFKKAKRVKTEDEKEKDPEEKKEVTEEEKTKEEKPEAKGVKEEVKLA
Description: Fluorogenic subtype-specific HDAC assay. Format: biochemical. The following applies: cell-free enzymatic assay, 1–10 µM.

Series [3] relates to DU145 prostate carcinoma cells. Description: Antiproliferative activity assay (crystal violet staining). Format: cell-based. The following applies: Homo sapiens, DU-145, as determined after 48 h, means ± SEM, n ≥ 3, read-out: Growth inhibitory activity IC50, DU145. As to the method: as §2
The test system of series [4] is Hep-G2 hepatoblastoma cells. The series is described as above. Format: cell-based. The conditions noted are these: Homo sapiens, HepG2, as determined after 48 h, means ± SEM, n ≥ 3, read-out: Growth inhibitory activity IC50, Hep-G2. Here is the method:
as §2

Series [5] relates to chorioallantoic membrane (CAM) of fertilized chicken eggs. Description: CAM assay (angiogenesis in fertilized chicken eggs). Format: in vivo. Here is the method: Anti-angiogenesis activity of SF5-SAHA was tested on the CAM (chorioallantoic membrane) of fertilized chicken eggs. The embryonic development was started by placing the eggs in a humidified (>60%) incubator in an upright position at a temperature of 37.8 °C. After 3 days, a hole of 2 mm was pierced in the eggshell top side in order to detach the developing CAM from the eggshell and let it sink into the allantoic cavity. After 10 days, the eggshell hole was broadened, and a silicone ring (1 cm Ø) was placed on the CAM, which was allowed to attach for 6 h. Then, 20 µL of SF5-SAHA containing medium or PBS (control) was added into the ring. The angiogenic states of the CAM were documented using a stereomicroscope equipped with a Kappa digital camera system (Distelkamp-Electronic, Kaiserslautern, Germany). Pictures were taken every 24 h until the finish of the experiment after 72 h. The CAM experiments were carried out with n = 3 eggs for each condition.

Series [6] deals with Human HDAC enzymes derived from HeLa cell nuclear extracts (pan-HDAC). Description: Fluorogenic pan-HDAC activity assay. The following applies: cell free, 1–10 µM tested. Format: biochemical.
In another series the test system is Hep-G2 cells. In words: Unspecific cytotoxicity (LDH release). The following applies: 1–10 µM, 3 and 24 h. Format: cell-based, human. (Release of lactate dehydrogenase indicates damage to the cell membrane.)

Broadly, the IC50 is the concentration that inhibits the measured activity by half. Regarding `O=C(CCCCCCC(=O)Nc1ccc(S(F)(F)(F)(F)F)cc1)NO` [SF5-SAHA], the caspase-3 activation in [1] and in series [2] was 5–6 times of the activity of untreated cells each time. In addition, the IC50 in the series on SupT11 cells is 3080 ± 330 nM; in the series on Jurkat cells, 760 ± 60 nM; with Hut78 cells, 2400 ± 400 nM; in the series on SMZ1 cells, 1580 ± 290 nM; in series [3], 730 ± 1080 nM; in series [4], 1790 ± 1060 nM. On human recombinant HDAC1, the “HDAC1 inhibition (comparison)” value was “comparable activities against HDAC1”. Besides, the “toxicity to chicken embryos” value in series [5] (doses of 5 and 10 µM) was “no toxicity”. Moreover, the “antiangiogenic effect on CAM” value in [5] (topical application, 5 or 10 µM, 72 h) is “reduced vessel diameters and reduced numbers of vessel branches”. For the same compound, the “pan-HDAC inhibition IC50 (in words)” value in series [6] is listed as “submicromolar range”. The “LDH release (unspecific cytotoxicity)” value in the series on Hep-G2 cells is “LDH levels were even decreased”.
